Consider 20 compounds from PubChem BioAssay AID330 (DTP/NCI, 2004).

Where “and” joins values, the source holds several entries; their conditions need not be identical. Identical values can stand only once. Toxic doses and inconclusive results are not listed.

In this experiment the test system is P388 leukemia ip, CD2F1 mice, survival T/C. Description: NCI In Vivo Anticancer Drug Screen. Data for tumor model P388 Leukemia (intraperitoneal) in CD2F1 (CDF1) mice. The conditions noted are these: endpoint: median survival time, higher = longer survival. In outline:
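Mice carrying the transplanted tumor received test compound or vehicle. Survival was recorded in each group, and the value is the treated-group measurement divided by that of the vehicle-treated control group.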

[1] abbreviates: dose: 50.0 mg/kg/injection, schedule: Q01DX005 (ip), vehicle: saline with Tween-80.
Setting [2] is: dose: 100.0 mg/kg/injection, schedule: Q01DX005 (ip), vehicle: saline with Tween-80.
[3] abbreviates: dose: 200.0 mg/kg/injection, schedule: Q01DX005 (ip), vehicle: saline with Tween-80.
Setting [4] is: dose: 50.0 mg/kg/injection, schedule: Q01DX001 (ip), vehicle: Klucel (hydroxypropylcellulose) (HPC).
The mark [5] stands for this setting: dose: 100.0 mg/kg/injection, schedule: Q01DX001 (ip), vehicle: Klucel (hydroxypropylcellulose) (HPC).
Setting [6] is: dose: 100.0 mg/kg/injection, schedule: Q04DX003 (ip), vehicle: Klucel (hydroxypropylcellulose) (HPC).

Regarding `C[C@H]1C(=O)O[C@@H]2CCN3CC=C(COC(=O)[C@](C)(O)[C@@]1(C)O)[C@H]23`, the T/C by setting is: (dose: 3.13 mg/kg/injection, schedule: Q01DX010 (ip), vehicle: saline) 95 % of control; (dose: 6.25 mg/kg/injection, schedule: Q01DX010 (ip), vehicle: saline) 100 % of control; (dose: 12.5 mg/kg/injection, schedule: Q01DX010 (ip), vehicle: saline) 104 % of control; (dose: 25.0 mg/kg/injection, schedule: Q01DX010 (ip), vehicle: saline) 100 % of control.
As to `CCCCCCCCCCCCCCNC(=O)C[N+](C)(C)Cc1ccccc1`, the T/C is 100 % of control (dose: 0.25 mg/kg/injection, schedule: Q01DX009 (ip), vehicle: saline with Tween-80); 100 % of control (dose: 0.5 mg/kg/injection, schedule: Q01DX009 (ip), vehicle: saline with Tween-80); 100 % of control (dose: 1.0 mg/kg/injection, schedule: Q01DX009 (ip), vehicle: saline with Tween-80).
Turning to `Cc1cc(NS(=O)(=O)c2ccc(Nc3ccnc4cc(Cl)ccc34)cc2)no1`, the T/C runs as follows: under setting [1], 92 % of control; under setting [2], 86 % of control; under setting [3], 92 % of control.
For `CC(=O)SCC[n+]1cc2ccccc2c2ccccc21`, the T/C runs as follows: (dose: 3.12 mg/kg/injection, schedule: Q01DX005 (ip), vehicle: Klucel (hydroxypropylcellulose) (HPC)) 95 % of control; (dose: 6.25 mg/kg/injection, schedule: Q01DX005 (ip), vehicle: Klucel (hydroxypropylcellulose) (HPC)) 99 % of control; (dose: 12.5 mg/kg/injection, schedule: Q01DX005 (ip), vehicle: Klucel (hydroxypropylcellulose) (HPC)) 105 % of control and 108 % of control; (dose: 25.0 mg/kg/injection, schedule: Q01DX005 (ip), vehicle: Klucel (hydroxypropylcellulose) (HPC)) 100 % of control; (dose: 50.0 mg/kg/injection, schedule: Q01DX005 (ip), vehicle: Klucel (hydroxypropylcellulose) (HPC)) 115 % of control and 118 % of control.
In the case of `Cc1nc2c([N+](=O)[O-])c(N3CCOCC3)c([N+](=O)[O-])cc2[nH]1`, the T/C is 98 % of control (dose: 100.0 mg/kg/injection, schedule: Q04DX003 (ip), vehicle: saline with Tween-80); 103 % of control (dose: 200.0 mg/kg/injection, schedule: Q04DX003 (ip), vehicle: saline with Tween-80); 101 % of control (dose: 400.0 mg/kg/injection, schedule: Q04DX003 (ip), vehicle: saline with Tween-80).
As to `Nc1nc(=O)n(C2OC(CO)C(O)C2O)cc1F` (stereo unspecified), the T/C runs as follows: (dose: 9.0 mg/kg/injection, schedule: Q01DX009 (ip), vehicle: saline sonified) 190 % of control; (dose: 9.0 mg/kg/injection, schedule: Q04DX003 (ip), vehicle: saline sonified) 154 % of control; (dose: 18.0 mg/kg/injection, schedule: Q01DX009 (ip), vehicle: saline sonified) 200 % of control; (dose: 18.0 mg/kg/injection, schedule: Q04DX003 (ip), vehicle: saline sonified) 162 % of control; (dose: 24.0 mg/kg/injection, schedule: Q04DX003 (ip), vehicle: saline with Tween-80) 181 % of control; (dose: 36.0 mg/kg/injection, schedule: Q01DX009 (ip), vehicle: saline sonified) 236 % of control. The T/C by setting is: (dose: 36.0 mg/kg/injection, schedule: Q04DX003 (ip), vehicle: saline sonified) 162 % of control; (dose: 36.0 mg/kg/injection, schedule: Q04DX003 (ip), vehicle: saline with Tween-80) 172 % of control; (dose: 54.0 mg/kg/injection, schedule: Q04DX003 (ip), vehicle: saline with Tween-80) 186 % of control.
Regarding `O=C(/C=C/c1ccc(Cl)c(Cl)c1)C1CCCCC1`, the T/C is 103 % of control (dose: 50.0 mg/kg/injection, schedule: Q01DX009 (ip), vehicle: Klucel (hydroxypropylcellulose) (HPC)) and 99 % of control (dose: 100.0 mg/kg/injection, schedule: Q01DX009 (ip), vehicle: Klucel (hydroxypropylcellulose) (HPC)).
Regarding `O=C1c2ccccc2C(=O)N1CS(=O)(=O)CN1C(=O)c2ccccc2C1=O`, the T/C runs as follows: (dose: 100.0 mg/kg/injection, schedule: Q04DX003 (ip), vehicle: saline) 97 % of control; (dose: 200.0 mg/kg/injection, schedule: Q04DX003 (ip), vehicle: saline) 93 % of control; (dose: 400.0 mg/kg/injection, schedule: Q04DX003 (ip), vehicle: saline) 97 % of control.
Regarding `Cc1nn(N)c2[nH]c(Cl)cc(=O)c12`, the T/C was 97 % of control under setting [1], 109 % of control under setting [2] and 116 % of control under setting [3].
Consider `O=c1nc(Oc2ccc(Cl)cc2Cl)oc2cc(Cl)ccc12`, for which the T/C is 94 % of control (dose: 60.0 mg/kg/injection, schedule: Q01DX005 (ip), vehicle: saline with Tween-80) and 94 % of control (dose: 120.0 mg/kg/injection, schedule: Q01DX005 (ip), vehicle: saline with Tween-80).
For `COc1ccccc1-n1cccc(C#N)c1=S`, the T/C was 98 % of control (dose: 60.0 mg/kg/injection, schedule: Q01DX005 (ip), vehicle: Klucel (hydroxypropylcellulose) (HPC)); 91 % of control (dose: 120.0 mg/kg/injection, schedule: Q01DX005 (ip), vehicle: Klucel (hydroxypropylcellulose) (HPC)); 89 % of control (dose: 240.0 mg/kg/injection, schedule: Q01DX005 (ip), vehicle: Klucel (hydroxypropylcellulose) (HPC)).
Turning to `NC1=NC(c2ccccc2)C=C(c2ccccc2)N1` (stereo unspecified), the T/C (dose: 12.5 mg/kg/injection, schedule: Q04DX002 (ip), vehicle: saline with Tween-80) was 104 % of control; the T/C (dose: 25.0 mg/kg/injection, schedule: Q04DX002 (ip), vehicle: saline with Tween-80) is 103 % of control; the T/C (dose: 50.0 mg/kg/injection, schedule: Q04DX002 (ip), vehicle: saline with Tween-80) is 103 % of control.
As for `C[CH2][Sn][Cl]`, the T/C by setting is: (dose: 6.25 mg/kg/injection, schedule: Q01DX009 (ip), vehicle: saline) 98 % of control; (dose: 12.5 mg/kg/injection, schedule: Q01DX009 (ip), vehicle: saline) 98 % of control; (dose: 25.0 mg/kg/injection, schedule: Q01DX009 (ip), vehicle: saline) 91 % of control.
`COc1c(C)cc([N+](=O)[O-])c(C)c1[N+](=O)[O-]`: the T/C is, setting by setting: under setting [4], 92 % of control; under setting [5], 93 % of control; (dose: 200.0 mg/kg/injection, schedule: Q01DX001 (ip), vehicle: Klucel (hydroxypropylcellulose) (HPC)) 90 % of control.
As for `COc1ccc(C(SCC(N)C(=O)O)(c2ccccc2)c2ccccc2)cc1` (stereo unspecified), the T/C (dose: 66.0 mg/kg/injection, schedule: Q04DX003 (ip), vehicle: Klucel (hydroxypropylcellulose) (HPC)) was 105 % of control and the T/C under setting [6] is 150 % of control.
In the case of `Cn1c2ccccc2c(=O)c2cc(NC(=O)CCC(=O)Nc3ccc4c(c3)c(=O)c3ccccc3n4C)ccc21`, the T/C runs as follows: under setting [1], 99 % of control; under setting [2], 97 % of control; under setting [3], 97 % of control.
Consider `O=[N+]([O-])c1cccc(N/N=C\c2c(Cl)[nH]c3ccccc23)c1`, for which the T/C (dose: 12.5 mg/kg/injection, schedule: Q01DX001 (ip), vehicle: Klucel (hydroxypropylcellulose) (HPC)) was 102 % of control; the T/C (dose: 25.0 mg/kg/injection, schedule: Q01DX001 (ip), vehicle: Klucel (hydroxypropylcellulose) (HPC)) was 93 % of control; the T/C under setting [4] was 89 % of control; the T/C under setting [5] is 86 % of control.
For `C[n+]1ccc(Nc2ccc(O)cc2)c2ccc(Cl)cc21`, the T/C is, setting by setting: (dose: 12.5 mg/kg/injection, schedule: Q04DX003 (ip), vehicle: Klucel (hydroxypropylcellulose) (HPC)) 100 % of control; (dose: 25.0 mg/kg/injection, schedule: Q04DX003 (ip), vehicle: Klucel (hydroxypropylcellulose) (HPC)) 116 % of control and 92 % of control; (dose: 50.0 mg/kg/injection, schedule: Q01DX005 (ip), vehicle: saline + Tween-80 + alcohol) 112 % of control; (dose: 50.0 mg/kg/injection, schedule: Q04DX003 (ip), vehicle: Klucel (hydroxypropylcellulose) (HPC)) 101 % of control and 95 % of control; (dose: 100.0 mg/kg/injection, schedule: Q01DX005 (ip), vehicle: saline + Tween-80 + alcohol) 110 % of control; under setting [6], 109 % of control and 112 % of control. Moreover, the T/C (dose: 200.0 mg/kg/injection, schedule: Q01DX005 (ip), vehicle: saline + Tween-80 + alcohol) is 114 % of control; the T/C (dose: 200.0 mg/kg/injection, schedule: Q04DX003 (ip), vehicle: Klucel (hydroxypropylcellulose) (HPC)) is 120 % of control and 94 % of control.
For `CCCCN(CCCC)CC(O)c1cccc2cc(Cl)ccc12` (stereo unspecified), the T/C is, setting by setting: under setting [1], 104 % of control; under setting [2], 109 % of control.
In the case of `CC(=O)NC(=O)Cc1ccccc1`, the T/C reads like this: (dose: 100.0 mg/kg/injection, schedule: Q04DX002 (ip), vehicle: Klucel (hydroxypropylcellulose) (HPC)) 94 % of control; (dose: 200.0 mg/kg/injection, schedule: Q04DX002 (ip), vehicle: Klucel (hydroxypropylcellulose) (HPC)) 95 % of control; (dose: 400.0 mg/kg/injection, schedule: Q04DX002 (ip), vehicle: Klucel (hydroxypropylcellulose) (HPC)) 97 % of control.
